Like-named read-outs stand apart in the source and are kept apart here.
How the values were obtained:
testosterone production = settings: normal men, single injection 300 μg/kg subcutaneous; cited from earlier work
5‐AR types 1 and 2 = assay: Effect of dutasteride on in vitro testosterone metabolism in human hepatocytes; type: cell-based; settings: 200 nM dutasteride with 50 μM testosterone, 60 minutes; for change in metabolite formation/levels with dutasteride co‐treatment: human hepatocytes
[1] = for AUC0‐24h at T800, fold higher than with T200: 800 mg vs 200 mg oral testosterone
UGT2B17 = target: T1, UGT2B17 (Homo sapiens, UniProt O75795); type: in vitro ADME; settings: scaled by absolute UGT2B abundance in the intestine
T1 sequence (O75795 24-530): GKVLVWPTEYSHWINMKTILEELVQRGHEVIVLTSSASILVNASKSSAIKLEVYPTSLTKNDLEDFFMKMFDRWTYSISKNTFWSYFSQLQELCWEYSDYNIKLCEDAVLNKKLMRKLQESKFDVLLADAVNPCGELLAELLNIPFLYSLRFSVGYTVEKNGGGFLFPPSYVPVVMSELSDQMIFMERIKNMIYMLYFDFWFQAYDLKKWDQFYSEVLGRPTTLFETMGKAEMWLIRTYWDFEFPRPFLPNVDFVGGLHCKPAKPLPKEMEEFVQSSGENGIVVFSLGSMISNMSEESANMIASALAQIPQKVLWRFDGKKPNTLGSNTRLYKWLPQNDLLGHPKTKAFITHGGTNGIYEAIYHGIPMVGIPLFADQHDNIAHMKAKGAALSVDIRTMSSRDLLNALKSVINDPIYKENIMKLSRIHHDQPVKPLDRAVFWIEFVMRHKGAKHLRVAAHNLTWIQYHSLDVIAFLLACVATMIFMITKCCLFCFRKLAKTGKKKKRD

[2] = oral; cited from earlier work
human hepatocytes = assay: In vitro metabolite formation from testosterone in primary human hepatocyte; type: in vitro ADME
UGT2B7 = UGT2B7 (Homo sapiens, UniProt P16662); settings: scaled by absolute UGT2B abundance in the liver
Sequence of UGT2B7 (P16662 24-529): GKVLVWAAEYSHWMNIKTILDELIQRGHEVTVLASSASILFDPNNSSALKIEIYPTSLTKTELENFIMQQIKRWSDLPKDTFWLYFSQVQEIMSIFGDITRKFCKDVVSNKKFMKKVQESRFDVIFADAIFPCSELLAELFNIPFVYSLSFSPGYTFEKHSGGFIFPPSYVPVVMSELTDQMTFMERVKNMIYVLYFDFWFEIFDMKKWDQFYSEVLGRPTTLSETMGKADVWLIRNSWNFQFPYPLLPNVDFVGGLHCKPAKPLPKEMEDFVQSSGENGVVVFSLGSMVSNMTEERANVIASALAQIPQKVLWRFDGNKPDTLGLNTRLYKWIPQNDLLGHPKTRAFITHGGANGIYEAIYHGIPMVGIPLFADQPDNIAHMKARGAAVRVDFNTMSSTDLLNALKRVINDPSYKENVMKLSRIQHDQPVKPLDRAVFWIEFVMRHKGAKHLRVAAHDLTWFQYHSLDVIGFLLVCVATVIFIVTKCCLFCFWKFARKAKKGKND

## acyline
Testosterone production
  duration of suppression of testosterone production: ≥ 15 days

## C[C@]12CC[C@H]3[C@@H](C[C@@H](O)C4=CC(=O)CC[C@@]43C)[C@@H]1CC[C@@H]2O [6β‐OH‐T, 6β‐hydroxytestosterone]
5‐AR types 1 and 2
  change in metabolite formation/levels with dutasteride co‐treatment: significant decreases
[1]; after oral testosterone
  detection in serum: only detectable in a few samples

## C[C@]12CC[C@H]3[C@@H](CCC4=CC(=O)CC[C@@]43C)[C@@H]1CC[C@@H]2O [Testosterone, reference compound]
UGT2B17
  predicted contribution of UGT2B17 to intestinal glucuronidation: 100%
[2]
  bioavailability: 2–8%

## C[C@]12CCC(=O)C=C1CC[C@@H]1[C@@H]2CC[C@]2(C)C(=O)CC[C@@H]12 [AED, androstenedione]
5‐AR types 1 and 2
  change in metabolite formation/levels with dutasteride co‐treatment: No significant changes
Human hepatocytes
  in vitro formation from testosterone: 46%
[1]
  AUC0‐24h at T800, fold higher than with T200: 4.2 fold
  circulating levels higher in T200+D and T800+D as compared with testosterone alone: 5.7 fold
[1]; male, human, in vivo, 200 mg, T200
  Tmax: 2 h
[1]; male, human, in vivo, T200+D
  Tmax: 2 h

## C[C@]12CC[C@@H](O)C[C@H]1CC[C@@H]1[C@@H]2CC[C@]2(C)C(=O)CC[C@@H]12 [Etio, etiocholanolone]
UGT2B17
  predicted contribution of UGT2B17 to intestinal glucuronidation: 90%
[1]
  circulating levels higher in T200+D and T800+D as compared with testosterone alone: 2.3 fold

## C[C@]12C=CC(=O)N[C@@H]1CC[C@@H]1[C@@H]2CC[C@]2(C)[C@@H](C(=O)Nc3cc(C(F)(F)F)ccc3C(F)(F)F)CC[C@@H]12 [dutasteride, reference compound]
5‐AR types 1 and 2
  inhibition of 5‐AR types 1 and 2 mediated metabolism of testosterone: complete inhibition

## C[C@]12CC[C@@H](O)C[C@@H]1CC[C@@H]1[C@@H]2CC[C@]2(C)C(=O)CC[C@@H]12 [A, androsterone]
5‐AR types 1 and 2
  change in metabolite formation/levels with dutasteride co‐treatment: significant decreases
UGT2B17
  predicted contribution of UGT2B17 to intestinal glucuronidation: 70%
UGT2B7
  predicted contribution of UGT2B7 to hepatic glucuronidation: 100%

## C[C@]12CCC(=O)C[C@@H]1CC[C@@H]1[C@@H]2CC[C@]2(C)[C@@H](O)CC[C@@H]12 [DHT, dihydrotestosterone]
5‐AR types 1 and 2
  change in metabolite formation/levels with dutasteride co‐treatment: significant decreases
[1]
  AUC0‐24h at T800, fold higher than with T200: 3.3 fold
[1]; male, human, in vivo, 800 mg, T800
  Tmax: 2 h
[1]; male, human, in vivo, AUC0–24h, T800+D, average, n = 7
  AUC(0-t): 0.0266 µM·h
[1]; male, human, in vivo, T200+D
  Tmax: 4 h

Source: publication PMC6132360 (Clinical and Translational Science, 2018)
